Read-outs that look alike come from different tables or passages of the source.
Tests used:
[1] = plasma
Protocol: (§4) The stability of plasma and urine samples were evaluated at three different QC concentration levels (LQC, MQC and HQC, n = 3 for each level); the conditions were freeze–thaw stability, long-term stability, short-term stability, and post preparative stability in an autosampler. The evaluation of stability under freeze–thaw condition was carried out over five cycles of − 80 °C for at least 12 h of each cycle. Long-term stability was analyzed after storing the samples at − 80 °C. Short-term stability of each analyte, for up to 8 h during processing on the bench at room temperature, was also evaluated. For evaluation of post-preparative stability, the extracted samples were stored at ambient temperature (4 °C) in an autosampler for 24 h. The analyte was considered as a stable sample when the average percentage of accuracy of the QC sample was in the range of 85–115% and the %CV was not over 15%.

[2] = Clinical pharmacokinetics in plasma after single oral administration of A. paniculata extract; format: in vivo, human
Protocol: (§1) An aliquot of 50 µL of plasma or urine was placed in a 1.5 mL of polypropylene centrifuge micro-tube. Protein was removed from the sample by adding 200 µL of methanol (containing 50.00 ng/mL of IS). The mixture was vortexed for 10 min and was then centrifuged at 12,000 rpm, 4 °C for 10 min. The supernatant was filtered through a […] PVDF membrane (Chrom Tech) and transferred into a glass insert in a vial before LC‑MS/MS analysis.
(§2) The clinical pharmacokinetic study was designed as an open-labeled, with a single oral dosing, and conducted under a fasting condition. Four healthy subjects were recruited according to the following inclusion criteria: 18—55 years old with a body mass index (BMI) of 18–30 kg/m^2. Study participants were identified as healthy based on laboratory testing and physical examinations. The participants received 3 capsules containing A. paniculata extract (calculated as 60 mg of andrographolide/dose) before breakfast with 240 mL of drinking water. Blood samples, in EDTA tubes, were taken after oral administration at 0, 10, 20, 30, 45 min, and 1, 1.5, 2, 4, 6, 8, 10, 12, 24 h post dose. All blood samples were then centrifuged at 4000 ± 100 rpm, 4 °C for 5 min. Plasma was pipetted and stored in cryotubes at − 80 °C until further analysis. Urine samples were collected during 0–4, 4–8, 8–12, 12–24, 24–32, 32–40 and 40–48 h after dosing and were then kept at − 80 °C before sample extraction.
Pharmacokinetic parameters were determined by non-compartmental analysis using PK solutions software, version 2.0 (Summit Research Services). The maximum concentration of four targeted compounds (Cmax) and the time to reach maximum concentration (Tmax) were taken directly from the individual plasma concentration versus time profiles. The area under the curve from time zero to the last sampling time (AUC0-t) was estimated using the linear trapezoidal rule. The apparent volume of distribution (Vd/F) and the elimination half-life (t1/2) were determined using non-compartmental analysis.
(§3) Finally, the hydrolysis of glucuronide metabolites in the pharmacokinetic study was performed according to the following process: 50 µL of plasma or urine sample was incubated for 30 min with 50 µL of 1000 U/mL β-glucuronidase in phosphate buffer pH 6.8 (composed of 0.1 M sodium phosphate monobasic and 0.1 M sodium phosphate dibasic) at 37 °C. For the hydrolysis of sulfatase, 50 µL of 100 units/mL of sulfatase in an acetate buffer at pH 5.0 (composed of 0.1 M acetic acid and 0.1 M sodium acetate) was added into 50 µL of sample; the mixture was then incubated at 37 °C for 2 h. The reaction was stopped in all hydrolysis samples with 150 µL of cold methanol, and then protein precipitation was performed prior to LC–MS/MS analysis. However, due to unavailable standard of the conjugated forms (AP-glucuronide and […]). The quantitative analysis of conjugated metabolites was determined after the hydrolysis reaction by enzymatic digestion, and the free form was analyzed without hydrolysis. The conjugated standards of AP-glucuronide or AP-sulfate should be synthesized for determining the exact amount of the glucuronide or sulfate.

[3] = Cumulative urine excretion after single oral administration of A. paniculata extract; format: in vivo, human
Protocol: as §1, §2, §3

[4] = Stability in urine under different storage conditions; format: physicochemical, human
Protocol: as §4

[5] = Freeze–thaw stability 5 cycles, 2.50 ng/mL (LQC)
[6] = Freeze–thaw stability 5 cycles, 500.00 ng/mL (MQC)
[7] = Freeze–thaw stability 5 cycles, 900.00 ng/mL (HQC)
[8] = Long term stability 3 months at − 80 °C, 2.50 ng/mL (LQC)
[9] = Long term stability 3 months at − 80 °C, 500.00 ng/mL (MQC)
[10] = Long term stability 3 months at − 80 °C, 900.00 ng/mL (HQC)
[11] = Post preparative stability 24 h at autosampler, 2.50 ng/mL (LQC)
[12] = Post preparative stability 24 h at autosampler, 500.00 ng/mL (MQC)
[13] = Post preparative stability 24 h at autosampler, 900.00 ng/mL (HQC)
[14] = Short term stability 8 h at room temperature, 2.50 ng/mL (LQC)
[15] = Short term stability 8 h at room temperature, 500.00 ng/mL (MQC)
[16] = Short term stability 8 h at room temperature, 900.00 ng/mL (HQC)
[17] = human, parent compound in plasma, n = 4, single oral dose of extract (60 mg andrographolide), mean ± SD
[18] = human, parent compound in plasma, n = 4, single oral dose of extract (60 mg andrographolide), median

Compound: C=C1CC[C@@H]2[C@](C)(CO)[C@H](O)CC[C@@]2(C)[C@@H]1/C=C/C1=CCOC1=O [AP3, 14-deoxy-11, 12-didehydroandrographolide]
- %Accuracy [1, 5]: 102.35%
- Measured concentration [1, 5]: 2.56 ± 0.21 ng/mL
- %Accuracy [1, 6]: 93.25%
- Measured concentration [1, 6]: 466.24 ± 38.67 ng/mL
- %Accuracy [1, 7]: 98.75%
- Measured concentration [1, 7]: 888.74 ± 16.64 ng/mL
- %Accuracy [1, 8]: 87.13%
- Measured concentration [1, 8]: 2.18 ± 0.05 ng/mL
- %Accuracy [1, 9]: 94.32%
- Measured concentration [1, 9]: 471.59 ± 4.35 ng/mL
- %Accuracy [1, 10]: 98.11%
- Measured concentration [1, 10]: 883.01 ± 16.08 ng/mL
- %Accuracy [1, 11]: 97.41%
- Measured concentration [1, 11]: 2.44 ± 0.04 ng/mL
- %Accuracy [1, 12]: 94.34%
- Measured concentration [1, 12]: 471.70 ± 15.57 ng/mL
- %Accuracy [1, 13]: 100.12%
- Measured concentration [1, 13]: 901.09 ± 11.50 ng/mL
- %Accuracy [1, 14]: 97.61%
- Measured concentration [1, 14]: 2.44 ± 0.04 ng/mL
- %Accuracy [1, 15]: 94.40%
- Measured concentration [1, 15]: 472.00 ± 19.37 ng/mL
- %Accuracy [1, 16]: 98.65%
- Measured concentration [1, 16]: 887.83 ± 21.04 ng/mL
- Cmax ([2]; human, parent compound in plasma, healthy subjects n = 4, single oral dose of extract (60 mg andrographolide), mean ± SD): 83.8 ± 22.2 ng/mL
- AUC(0-t) [2, 17]: 309 ± 59 ng·h/mL
- Vd/F [2, 17]: 0.73 ± 0.1 L/kg
- Tmax [2, 18]: 1.5 h
- half-life [2, 18]: 1.38 h
- AUC of both conjugated metabolites compared to the respective parent compounds ([2]; plasma, single oral dose of extract): greater
- Route of excretion [3]: primarily excreted renally
- %Accuracy [4, 5]: 93.92%
- Measured concentration [4, 5]: 2.35 ± 0.10 ng/mL
- %Accuracy [4, 6]: 91.91%
- Measured concentration [4, 6]: 459.54 ± 15.54 ng/mL
- %Accuracy [4, 7]: 100.19%
- Measured concentration [4, 7]: 901.72 ± 35.81 ng/mL
- %Accuracy [4, 8]: 94.28%
- Measured concentration [4, 8]: 2.36 ± 0.06 ng/mL
- %Accuracy [4, 9]: 90.36%
- Measured concentration [4, 9]: 451.82 ± 15.00 ng/mL
- %Accuracy [4, 10]: 98.18%
- Measured concentration [4, 10]: 883.61 ± 32.83 ng/mL
- %Accuracy [4, 11]: 93.61%
- Measured concentration [4, 11]: 2.34 ± 0.11 ng/mL
- %Accuracy [4, 12]: 90.33%
- Measured concentration [4, 12]: 451.66 ± 9.81 ng/mL
- %Accuracy [4, 13]: 100.28%
- Measured concentration [4, 13]: 902.47 ± 52.60 ng/mL
- %Accuracy [4, 14]: 94.35%
- Measured concentration [4, 14]: 2.36 ± 0.07 ng/mL
- %Accuracy [4, 15]: 90.63%
- Measured concentration [4, 15]: 453.16 ± 19.26 ng/mL
- %Accuracy [4, 16]: 101.88%
- Measured concentration [4, 16]: 916.89 ± 26.49 ng/mL

Reference: PMC9924185, “A validated LC–MS/MS method for clinical pharmacokinetics and presumptive phase II metabolic pathways following oral administration of Andrographis paniculata extract” (Scientific Reports, 2023)
